Measurements as given in PubChem BioAssay (NCI).
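Protocol summary: plate cells (96-well), add compound at 5 concentrations, incubate 48 h, interpolate endpoints linearly. GI50 is the concentration that inhibits growth by half. At the TGI there is no net growth.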

Key:
Experiment in all cases: NCI tumour cell line growth inhibition, 48 h
TK-10 renal = tested on: TK-10 renal
HOP-62 NSCLC = tested on: HOP-62 NSCLC
OVCAR-3 ovarian = tested on: OVCAR-3 ovarian
OVCAR-4 ovarian = tested on: OVCAR-4 ovarian
OVCAR-8 ovarian = tested on: OVCAR-8 ovarian
KM20L2 colon = tested on: KM20L2 colon
EKVX NSCLC = tested on: EKVX NSCLC
SK-MEL-2 melanoma = tested on: SK-MEL-2 melanoma
SF-295 CNS = tested on: SF-295 CNS
RXF-631 renal = tested on: RXF-631 renal
SNB-75 CNS = tested on: SNB-75 CNS
HCC-2998 colon = tested on: HCC-2998 colon
DMS 114 small cell lung = tested on: DMS 114 small cell lung
COLO 205 colon = tested on: COLO 205 colon
UACC-62 melanoma = tested on: UACC-62 melanoma
CAKI-1 renal = tested on: CAKI-1 renal
KM12 colon = tested on: KM12 colon
NCI-H23 lung = tested on: NCI-H23 lung
NCI-H460 lung = tested on: NCI-H460 lung
M19-MEL melanoma = tested on: M19-MEL melanoma
RXF 393 renal = tested on: RXF 393 renal
SK-OV-3 ovarian = tested on: SK-OV-3 ovarian
LXFL 529 NSCLC = tested on: LXFL 529 NSCLC
SF-268 CNS = tested on: SF-268 CNS
HL-60(TB) leukemia = tested on: HL-60(TB) leukemia
XF 498 CNS = tested on: XF 498 CNS
SR leukemia = tested on: SR leukemia
HCT-116 colon = tested on: HCT-116 colon
A549 NSCLC = tested on: A549 NSCLC
K-562 leukemia = tested on: K-562 leukemia
HT29 colon = tested on: HT29 colon
SNB-78 CNS = tested on: SNB-78 CNS
U251 CNS = tested on: U251 CNS
HCT-15 colon = tested on: HCT-15 colon
UACC-257 melanoma = tested on: UACC-257 melanoma
NCI-H522 lung = tested on: NCI-H522 lung
DMS 273 small cell lung = tested on: DMS 273 small cell lung
IGROV1 ovarian = tested on: IGROV1 ovarian
UO-31 renal = tested on: UO-31 renal
RPMI-8226 leukemia = tested on: RPMI-8226 leukemia
MALME-3M melanoma = tested on: MALME-3M melanoma
SN12C renal = tested on: SN12C renal
SNB-19 CNS = tested on: SNB-19 CNS
A498 renal = tested on: A498 renal
HOP-92 NSCLC = tested on: HOP-92 NSCLC
786-0 renal = tested on: 786-0 renal
MOLT-4 leukemia = tested on: MOLT-4 leukemia
SK-MEL-5 melanoma = tested on: SK-MEL-5 melanoma
DLD-1 colon = tested on: DLD-1 colon
SK-MEL-28 melanoma = tested on: SK-MEL-28 melanoma
CCRF-CEM leukemia = tested on: CCRF-CEM leukemia
HOP-18 NSCLC = tested on: HOP-18 NSCLC
SF-539 CNS = tested on: SF-539 CNS
LOX IMVI melanoma = tested on: LOX IMVI melanoma
M14 melanoma = tested on: M14 melanoma
OVCAR-5 ovarian = tested on: OVCAR-5 ovarian
NCI-H226 lung = tested on: NCI-H226 lung
ACHN renal = tested on: ACHN renal
P388 leukemia = tested on: P388 leukemia

C=CC(OCC)(OCC)OCC
TGI (TK-10 renal): > 100 µM | TGI (HOP-62 NSCLC): > 100 µM | TGI (OVCAR-3 ovarian): > 100 µM | TGI (OVCAR-4 ovarian): > 100 µM | TGI (OVCAR-8 ovarian): > 100 µM | TGI (KM20L2 colon): > 100 µM | TGI (EKVX NSCLC): > 100 µM | TGI (SK-MEL-2 melanoma): > 100 µM | TGI (SF-295 CNS): > 100 µM | TGI (RXF-631 renal): > 100 µM | TGI (SNB-75 CNS): > 100 µM | TGI (HCC-2998 colon): > 100 µM | TGI (DMS 114 small cell lung): 31.2 µM | TGI (COLO 205 colon): > 100 µM | TGI (UACC-62 melanoma): > 100 µM | TGI (CAKI-1 renal): > 100 µM | TGI (KM12 colon): > 100 µM | TGI (NCI-H23 lung): > 100 µM | TGI (NCI-H460 lung): > 100 µM | TGI (M19-MEL melanoma): > 100 µM | TGI (RXF 393 renal): > 100 µM | TGI (SK-OV-3 ovarian): > 100 µM | TGI (LXFL 529 NSCLC): > 100 µM | TGI (SF-268 CNS): > 100 µM | TGI (HL-60(TB) leukemia): > 100 µM | TGI (XF 498 CNS): > 100 µM | TGI (SR leukemia): 65.4 µM | TGI (HCT-116 colon): 43.6 µM | TGI (A549 NSCLC): > 100 µM | TGI (K-562 leukemia): > 100 µM | TGI (HT29 colon): > 100 µM | TGI (SNB-78 CNS): > 100 µM | TGI (U251 CNS): > 100 µM | TGI (HCT-15 colon): > 100 µM | TGI (UACC-257 melanoma): > 100 µM | TGI (NCI-H522 lung): > 100 µM | TGI (DMS 273 small cell lung): 37.9 µM | TGI (IGROV1 ovarian): > 100 µM | TGI (UO-31 renal): > 100 µM | TGI (RPMI-8226 leukemia): > 100 µM | TGI (MALME-3M melanoma): > 100 µM | TGI (SN12C renal): > 100 µM | TGI (SNB-19 CNS): > 100 µM | TGI (A498 renal): > 100 µM | TGI (HOP-92 NSCLC): > 100 µM | TGI (786-0 renal): 58.7 µM | TGI (MOLT-4 leukemia): > 100 µM | TGI (SK-MEL-5 melanoma): > 100 µM | TGI (DLD-1 colon): > 100 µM | TGI (SK-MEL-28 melanoma): > 100 µM | TGI (CCRF-CEM leukemia): > 100 µM | TGI (HOP-18 NSCLC): > 100 µM | TGI (SF-539 CNS): > 100 µM | TGI (LOX IMVI melanoma): > 100 µM | TGI (M14 melanoma): > 100 µM | TGI (OVCAR-5 ovarian): > 100 µM | TGI (NCI-H226 lung): > 100 µM | TGI (ACHN renal): > 100 µM

CCc1c2c(nc3ccc(OC(=O)N4CCC(N5CCCCC5)CC4)cc13)-c1cc3c(c(=O)n1C2)COC(=O)[C@]3(O)CC
GI50 (KM20L2 colon): 17.2 µM | TGI (KM20L2 colon): 66.3 µM | GI50 (SNB-78 CNS): 53.7 µM | TGI (SNB-78 CNS): > 100 µM | GI50 (P388 leukemia): 10.1 µM | TGI (P388 leukemia): 40.2 µM
